Laboratory results: ChEMBL document CHEMBL3046317, “Synthesis and Herbicidal Activity of Sulfonylureas with Fused Heterocyclic Moiety” (1994)

Assays:
Type in all cases: functional
Rotala indica [1] = assay: Herbicidal activity against Rotala indica assessed as killing at 1 g/ha by pot test
Cyperus difformis [2] = assay: Herbicidal activity against Cyperus difformis assessed as killing at 1 g/ha by pot test
Sagittaria pygmaea [3] = assay: Herbicidal activity against Sagittaria pygmaea assessed as killing at 1 g/ha by pot test
[4] = test system: Schoenoplectiella juncoides; assay: Herbicidal activity against Schoenoplectiella juncoides assessed as killing at 10 g/ha by pot test
Echinochloa oryzicola [5] = assay: Herbicidal activity against Echinochloa oryzicola assessed as killing at 10 g/ha by pot test
Rotala indica [6] = assay: Herbicidal activity against Rotala indica assessed as killing at 10 g/ha by pot test
[7] = test system: Schoenoplectiella juncoides; assay: Herbicidal activity against Schoenoplectiella juncoides assessed as killing at 1 g/ha by pot test
Lindernia procumbens [8] = assay: Herbicidal activity against Lindernia procumbens assessed as killing at 10 g/ha by pot test
Cyperus difformis [9] = assay: Herbicidal activity against Cyperus difformis assessed as killing at 10 g/ha by pot test
Sagittaria pygmaea [10] = assay: Herbicidal activity against Sagittaria pygmaea assessed as killing at 10 g/ha by pot test
Echinochloa oryzicola [11] = assay: Herbicidal activity against Echinochloa oryzicola assessed as killing at 1 g/ha by pot test
Lindernia procumbens [12] = assay: Herbicidal activity against Lindernia procumbens assessed as killing at 1 g/ha by pot test

SMILES | Activity (Rotala indica [1]) [%] | Activity (Cyperus difformis [2]) [%] | Activity (Sagittaria pygmaea [3]) [%] | Activity [4] [%] | Activity (Echinochloa oryzicola [5]) [%] | Activity (Rotala indica [6]) [%] | Activity [7] [%] | Activity (Lindernia procumbens [8]) [%] | Activity (Cyperus difformis [9]) [%] | Activity (Sagittaria pygmaea [10]) [%] | Activity (Echinochloa oryzicola [11]) [%] | Activity (Lindernia procumbens [12]) [%]
COc1cc(OC)nc(NC(=O)NS(=O)(=O)c2c(C)cc3ccccn23)n1 | 1 | 1 | 51 | 51 | 76 | 51 | 1 | 51 | 76 | 76 | 1 | 1
COc1cc(OC)nc(NC(=O)NS(=O)(=O)c2c(C)cn3ccccc23)n1 | 1 | 1 | 51 | 1 | 1 | 1 | 1 | 1 | 51 | 76 | 1 | 1
COc1cc(OC)nc(NC(=O)NS(=O)(=O)c2ncc3ccccn23)n1 | 51 | 1 | 1 | 51 | 1 | 51 | 1 | 51 | 1 | 76 | 1 | 1
COc1cc(OC)nc(NC(=O)NS(=O)(=O)c2nc(C)n3ccccc23)n1 | 51 | 1 | 51 | 1 | 1 | 76 | 1 | 1 | 76 | 51 | 1 | 1
COc1cc(OC)nc(NC(=O)NS(=O)(=O)c2ncn3ccccc23)n1 | 51 | 51 | 1 | 1 | 51 | 76 | 1 | 51 | 76 | 76 | 1 | 1
COc1cc(OC)nc(NC(=O)NS(=O)(=O)c2c(C)nn3ccccc23)n1 | 88 | 88 | 88 | 100 | 88 | 88 | 76 | 88 | 88 | 88 | 88 | 76
COc1cc(OC)nc(NC(=O)NS(=O)(=O)c2c(C)nn3cccnc23)n1 | 76 | 88 | 76 | 100 | 88 | 88 | 76 | 88 | 88 | 88 | 88 | 88
COc1cc(OC)nc(NC(=O)NS(=O)(=O)c2c(C)nc3n(C)ccn23)n1 | 51 | 1 | 1 | 76 | 88 | 88 | 1 | 51 | 76 | 76 | 1 | 51
COc1cc(OC)nc(NC(=O)NS(=O)(=O)c2c(C)nc3scnn23)n1 | 76 | 1 | 1 | 88 | 88 | 88 | 51 | 88 | 88 | 88 | 76 | 76
COc1cc(OC)nc(NC(=O)NS(=O)(=O)c2c(C)nc3cccnn23)n1 | 88 | 88 | 88 | 100 | 100 | 88 | 100 | 88 | 100 | 100 | 88 | 88
